Results reported in patent US20080193913A1, “Diluent, methods of manufacture and use” (Millipore Corporation, priority 2002, published 2008).

Experiment: Non-specific drug binding (NSB) to 96-well plates, drug in phosphate buffer
Format: physicochemical
Conditions: time course study on PP and PTFE plates using LC-MS (data not shown)
Description: The drug NSB (10 nM drug in phosphate buffer) to other 96-well plates made from different plastics was also tested.

SMILES | drug NSB, dependence on plate material
CC(=O)O[C@H]1C(=O)[C@@]2(C)[C@H]([C@H](OC(=O)c3ccccc3)[C@]3(O)C[C@H](OC(=O)[C@H](O)[C@@H](NC(=O)c4ccccc4)c4ccccc4)C(C)=C1C3(C)C)[C@]1(OC(C)=O)CO[C@@H]1C[C@@H]2O [taxol] | independent of plate material
C[C@]12CC[C@H]3[C@@H](CCC4=CC(=O)CC[C@@]43C)[C@@H]1CC[C@@H]2O [testosterone] | independent of plate material
